Experimental data from patent EP0263202A1, “Inhibition of viral protease activity by peptide halomethyl ketones” (priority 1986, dated 1988).
Residues, ends and D or L forms follow the SMILES beside them.

Legend:
[1] = tested on: subtilisin BPNʹ; settings: ranking among a series of peptide chloromethyl ketones; cited from earlier work
[2] = tested on: human HeLa-O cells; assay type: cell-based
Protocol: (§1) One assay, known as a viral cleavage assay, involves comparison of patterns of protein synthesis (as visualized by incorporation of labeled amino acids) in virus-infected HeLa cells grown in the presence and absence of a selected test compound. A second assay, known as a plaque inhibition assay, involves an assessment of the effects of test compounds upon the infectivity of virus in agar-overlaid cell cultures. Toxic effects of a test compound, if any, will also be observed during the incubation period of the plaque inhibition assay. Both assays are described in greater detail below.
When plaques in control cultures were large enough to be observed, yet still relatively discrete, all cultures were stained with 1% crystal violet. Plaques appeared as clear areas in a deep purple field of uninfected cells.

[3] = tested on: rhinovirus type 1A; assay: plaque inhibition assay; assay type: cell-based, Human rhinovirus type 1A; settings: HeLa cells, concentration at which activity was noted
Protocol: as §1
In this assay, cultured HeLa cells were grown to confluency in 60 mm plastic petri dishes. Each culture was then infected with approximately 300 plaque-forming units of virus. Human rhinovirus type 1A was used in the test reported below. The virus employed in this experiment was allowed to absorb to the cells for 30 minutes at 34.5°.
The compound tested was dissolved in ethanol at a concentration 100 times greater than the highest concentration to be tested. The resulting solution was then diluted 1:100 into a solution of McCoy's medium containing 5% heat-inactivated fetal calf serum and 0.38% agar. Two-fold dilutions were then made into agar medium. […]

Compound | inhibition of subtilisin BPNʹ [1] | cytotoxicity first detected at a concentration [2] | Antiviral activity, as scored by 90% plaque reduction [3] [µg/mL]
acetyl-L-phenyl-alanyl-L-glycyl-L-alanyl-L-leucyl chloromethyl ketone (FGAL; HELM PEPTIDE1{[ac].F.G.A.L.[ClC[*:1]]}$$$$V2.0; SMILES CC(=O)N[C@@H](Cc1ccccc1)C(=O)NCC(=O)N[C@@H](C)C(=O)N[C@@H](CC(C)C)C(=O)CCl) [Ac-Phe-Gly-Ala-LeuCH₂Cl] | fastest inhibitor |  | 
CC(C)C[C@H](NC(=O)[C@H](CC(C)C)NC(=O)CNC(=O)[C@H](Cc1ccccc1)NC(=O)OCc1ccccc1)C(=O)CCl [Z-Phe-Gly-Leu-LeuCH₂Cl, N-carbobenzoxy-L-phenylalanyl-L-glycyl-L-leucyl-L-leucine chloromethyl ketone] (HELM PEPTIDE1{[O=C(OCc1ccccc1)[*:2]].F.G.L.L.[ClC[*:1]]}$$$$V2.0) |  | about 15 µg/mL | 1
